Laboratory results taken from US8748448B2, “Combination analgesic employing opioid agonist and neutral antagonist” (AIKO Biotechnology, priority 2007, dated 2014).
Values joined by “and” are separate entries in the source; they are usually repeats but may differ in a detail not shown here. Equal entries are not always repeated. “Also recorded” adds a separate entry of the source.

What was measured:
[1] = 6β-naltrexol plasma pharmacokinetics after i.v. infusion, opioid-naïve volunteers (eIND); conditions: humans
[2] = Concentrations in plasma and brain tissue after i.p. injection (LC/MS/MS); conditions: for plasma concentration as metabolite after the naltrexone dose: after naltrexone 1 mg/kg i.p.
[3] = Tolerability of i.v. 6β-naltrexol infusion in opioid-naïve volunteers; conditions: i.v. infusion over 30 minutes, up to 20 mg
[4] = tested on: hydrocodone induced GI inhibition; assay: GI transit assay (charcoal meal): reversal of hydrocodone induced GI inhibition
[5] = tested on: gastrointestinal activity in methadone-dependent subjects; assay: Methadone maintenance subjects: laxation and oral-cecal transit time; type: in vivo, human
Description: The aims of this first-in-human study were to examine the pharmacokinetics of 6β-naltrexol to measure two key characteristics of 6β-naltrexol in highly opioid dependent persons: unwanted aspects of opioid antagonism such as withdrawal, and preferential suppression of opioid effects on the gastrointestinal tract compared to the central nervous system. Eight subjects were enrolled. Of these subjects, four were ineligible for dosing with 6β-naltrexol: three due to small bowel bacterial overgrowth and one due to difficulty with IV catheter insertion. […] The remaining two subjects tolerated the 1.0 mg dose and reported a willingness to take higher doses of 6β-naltrexol.
Laxation was experienced for one subject (25%; 101 minutes post dose) at the 0.05 mg dose, three subjects (75%; 2, 17, and 40 minutes post dose) at the 0.5 mg dose, and two subjects (67%; both at 5 minutes post dose) at the 1.0 mg dose. […] In the two subjects who did undergo oral-cecal transit time testing (lactulose/H2 test), 6β-naltrexol accelerated GI transit time at doses of 0.25 mg and above. A quantitative evaluation of this test was not possible because of insufficient number of subjects (data from only two subjects were evaluable, while a third subject had elevated base-line H2 levels, and a fourth subject was not tested), but a detectable reversal of GI slowing at 0.25 mf 6β-naltrexol is consistent with the finding that regulator bowel movement occurred with two subjects at 0.5 mg 6β-naltrexol.

[6] = tested on: opioid withdrawal in methadone-dependent subjects; assay: Double-blind ascending dose study in methadone maintenance subjects: withdrawal scales, VAS, vital signs, pupillometry, tolerability; conditions: for tolerability: b346: at all but the highest dose (1.0 mg)
[7] = tested on: stereotypic circling induced by morphine; conditions: non-dependent and chronically dependent mice; cited from earlier work
[8] = Methadone maintenance subjects: serum 6β-naltrexol pharmacokinetics; type: in vivo, human; conditions: 1.0 mg dose
Protocol: Using an assay with a lower limit of quantification of 0.5 ng/mL, 6β-naltrexol was detectable in plasma for only six hours. Determination of terminal half-life of elimination was not feasible because of lack of sufficient assay sensitivity.

[9] = Oral bioavailability of the neutral antagonists
[10] = Neutral antagonist comparison (Table 3)
[11] = tested on: morphine-induced antinociception; conditions: cited from earlier work
[12] = tested on: morphine-induced pupil constriction; assay: Pupillometry with 10 mg morphine i.v.; type: in vivo, human; conditions: doses up to 20 mg i.v.
[13] = tested on: hydrocodone effects: GI transit (peripheral) vs. antinociception (central); assay: Peripheral vs. central potency, (antinociception ID50)/(GI transit ID50); type: in vivo, mice
[14] = tested on: morphine-induced analgesia; assay: Cold pressor test with 10 mg morphine i.v.; type: in vivo, human; conditions: doses up to 20 mg i.v.
[15] = 1 mg/kg i.p., 60 min after injection
[16] = 10 mg/kg i.p., 10 min after injection
[17] = 10 mg/kg i.p., 60 min after injection

## 6β-naltrexol
[1]
  blood half-life relative to most commonly used oral opioid analgesic formulations: 3-4 times
[1]; i.v. infusion 3 mg or 10 mg
  mean terminal plasma elimination half-life: 11.1 ± 2.4 h
[2]; 1 mg/kg i.p., 10 min after injection
  Brain concentration: 7 ± 6 ng/g
[2]; 1 mg/kg i.p., 10 min after injection, mean±SD, n=3
  Plasma concentration: 0.061 ± 0.007 µg/mL
[2]; [15]
  Brain concentration: 9 ± 1 ng/g
  Plasma concentration: 0.024 ± 0.028 µg/mL
[2]; [16]
  Brain concentration: 89 ± 6 ng/g
  Plasma concentration: 0.857 ± 0.122 µg/mL
[2]; [17]
  Brain concentration: 74 ± 14 ng/g
  Plasma concentration: 0.075 ± 0.025 µg/mL
[2]; after i.p. injection
  change of levels at 60 min from those measured at 10 min: had not changed
[2]; 10 min
  plasma concentration as metabolite after the naltrexone dose: 0.0019 µg/mL
[2]; 60 min
  plasma concentration as metabolite after the naltrexone dose: 0.0017 µg/mL
[2]; plasma and brain tissue, method sensitive to approximately 1 ng/mL (g)
  detectability as metabolite after the naltrexone dose: detectable in plasma but not brain tissue
[3]
  tolerability: well tolerated
[4]; antagonist i.v., hydrocodone A90 3.2 mg/kg i.v.
  GI Transit ID50: 0.0443 mg/kg
[4]; antagonist p.o. co-administered with hydrocodone A90 32 mg/kg p.o.
  GI Transit ID50: 1.290 mg/kg
[4]; antagonist p.o., hydrocodone A90 3.2 mg/kg i.v.
  GI Transit ID50: 0.410 mg/kg
[4]; on administration of the antagonist
  induction of diarrhea: absent
[5]; 0.05 mg dose
  subjects experiencing laxation: 25%
  time of laxation post dose: 101 min
[5]; 0.5 mg dose
  subjects experiencing laxation: 75%
[5]; 0.5 mg i.v.
  effect on bowel movement: near normal bowel movement; also recorded: immediate bowel movement
[5]; 1.0 mg dose
  subjects experiencing laxation: 67%
[5]; 1.0 mg dose, both subjects
  time of laxation post dose: 5 min
[5]; individual patients
  Lowest dose producing laxation: 0.5 mg (2×) and 0.05 mg
[5]; iv, methadone maintenance patients
  dose sufficient initially to cause laxation: 0.5 mg
[5]; two evaluable subjects
  doses accelerating GI transit time (lactulose/H2 test): ≥ 0.25 mg
[6]; 0.5 mg i.v., methadone-dependent subjects
  withdrawal symptoms: minimal peripheral withdrawal and no detectable CNS withdrawal
[6]; 1 mg i.v.
  subjects tolerating the dose rather well: 3 of 4
[6]; 0.05-1.0 mg
  overall withdrawal (VAS, SOWS, OOWS, vital signs): minimal
  tolerability: well tolerated
[6]; 0.05-1.0 mg, listed as 6β-Naltrexol
  tolerability: generally well tolerated
[6]; dose 0.05 mg
  Diastolic BP, peak value: 83.0 ± 5.9 mmHg
  Heart Rate, peak value: 61.8 ± 6.2 bpm
  SOWS (total), peak value: 0.8 ± 1.0
  Systolic blood pressure (BP), peak value: 121.3 ± 7.0 mmHg
  VAS Any Drug Effect, peak value: 0.5 ± 1.0
  VAS Bad Drug Effect, peak value: 0.8 ± 1.5
  VAS Good Drug Effect, peak value: 0.3 ± 0.5
  VAS Opioid Withdrawal, peak value: 1.3 ± 2.5
  VAS Sickness, peak value: 0.50 ± 1.00
[6]; dose 0.05 mg, mean ± standard deviation
  OOWS (total), peak value: 0.8 ± 0.5
[6]; dose 0.15 mg
  Diastolic BP, peak value: 76.5 ± 5.1 mmHg
  Heart Rate, peak value: 59.5 ± 2.9 bpm
  OOWS (total), peak value: 1.5 ± 0.6
  SOWS (total), peak value: 1.3 ± 1.9
  Systolic blood pressure (BP), peak value: 118.5 ± 10.0 mmHg
  VAS Any Drug Effect, peak value: 1.5 ± 1.7
  VAS Bad Drug Effect, peak value: 17.9 ± 32.5
  VAS Good Drug Effect, peak value: 2.2 ± 2.8
  VAS Opioid Withdrawal, peak value: 1.4 ± 1.3
  VAS Sickness, peak value: 9.3 ± 17.2
[6]; dose 0.5 mg
  Diastolic BP, peak value: 80.3 ± 5.7 mmHg
  Heart Rate, peak value: 61.8 ± 5.7 bpm
  OOWS (total), peak value: 3.5 ± 1.3
  SOWS (total), peak value: 4.3 ± 2.2
  Systolic blood pressure (BP), peak value: 118.8 ± 7.6 mmHg
  VAS Any Drug Effect, peak value: 34.3 ± 15.7
  VAS Bad Drug Effect, peak value: 42.5 ± 23.7
  VAS Good Drug Effect, peak value: 6.5 ± 12.3
  VAS Opioid Withdrawal, peak value: 21.0 ± 29.7
  VAS Sickness, peak value: 15.8 ± 18.1
[6]; dose 1.0 mg
  Diastolic BP, peak value: 88.3 ± 12.7 mmHg
  Heart Rate, peak value: 71.7 ± 4.9 bpm
  OOWS (total), peak value: 5.3 ± 4.0
  SOWS (total), peak value: 4.3 ± 2.8
  Systolic blood pressure (BP), peak value: 134.7 ± 26.4 mmHg
  VAS Any Drug Effect, peak value: 24.0 ± 21.7
  VAS Bad Drug Effect, peak value: 26.9 ± 33.0
  VAS Good Drug Effect, peak value: 1.0 ± 0.0
  VAS Opioid Withdrawal, peak value: 13.1 ± 8.1
  VAS Sickness, peak value: 9.0 ± 5.6
[6]; individual patients
  Would continue after highest dose: No and Yes (3×)
[6]; up to 1 mg
  pupillometry measures (a CNS effect): unaffected
[7]
  effect on stereotypic circling induced by morphine: prevents
[8]; Subject 1
  AUC: 7.8 ng·h/mL
  CL: 128 L/h
  t1/2: 2.2 h
[8]; Subject 2
  AUC: 7.6 ng·h/mL
  CL: 131 L/h
  t1/2: 2.43 h
[8]; Subject 2, serum
  Cmax: 0.0032 µg/mL
[9]; humans, estimated
  oral bioavailability (into the circulation), estimated: approximately 25%
[9]; rodent, previously determined data not shown
  bioavailability: 14%
[9]; species not stated
  oral bioavailability: ~20%
[10]
  Half-life of active metabolites: 12 h
[10]; given orally
  Bioavailability for CNS (central) effects: ~25%
[10]; given orally, opioid agonist naïve or non-dependent subject
  Strength (as compared to 6β-naltrexol): 1
[11]; administered intraperitoneally, Wang et al. 2001
  effect on morphine-induced antinociception: reverses
[11]; published observation, depending on route of administration
  potency for reversing morphine-induced antinociception, less potent than naltrexone: 5-10 fold
[12]
  effect on morphine-induced pupil constriction: no detectable effect
[13]; antagonist p.o./hydrocodone p.o. co-administered
  Fold-Shift (antinociception ID50)/(GI transit ID50): 9.53 and 9.5
[13]; mice, oral administration, earlier experiments
  selectivity in blocking peripheral over central opioid effects: approximately tenfold
[13]; mouse, orally co-administered with hydrocodone
  therapeutic window (peripheral side effects reduced without inhibition of analgesia): 0.1 to 3.0 mg/kg
[13]; over all administration routes
  fold more potent peripherally than centrally: 5-10 fold
[14]
  effect on morphine-induced analgesia: no detectable effect
